From patent publication US20030186946A1, “Suppression of cytotoxic protein conformers” (priority 2002, published 2003)
Where two headings read alike, the source gives them in different places.

Assays:
human amylin [1] = molecular target: T1, human amylin (Homo sapiens, UniProt P10997); assay: Electron microscopy of human amylin fibrils; format: biochemical; parameters: Amylin is a 37-residue; C-terminally amidated peptide having a disulfide bridge between the cysteines at residues 2 and 7; purchased Bachem Calif; (Torrance, Calif.); host or cells: chemical synthesis; details: 1200 μM compound, 60 μM human amylin, 10 mM tris pH 7.4, 24 h (FIG. 6)
T1 sequence (P10997 34-70 limits assumed): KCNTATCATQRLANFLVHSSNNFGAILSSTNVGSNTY
Experimental: Electron Microscopy. […] Samples were removed at various time points and prepared for electron microscopy. Aliquots (8 μl) of the amylin fibril preparations were absorbed to glow-discharged carbon-coated collodion film on 200-mesh copper grids for 1 min. Grids were blotted, washed twice in droplets of deionised water and stained with 2% (w/v) uranyl acetate. Grids were examined in a Phillips Technai transmission electron microscope operated at 120 kV.
Samples were removed at various time points and prepared for electron microscopy according to the procedure described in the methods.
Electron Microscopy of human amylin fibrils in the presence and absence of quinacrine (FIG. 5). A 100 fold molar excess of quinacrine was incubated with human amylin. Samples were removed at various time points and prepared for electron microscopy according to the procedure described in the methods.
Electron Microscopy of human amylin fibrils in the presence and absence of selected polycyclic compounds (FIG. 6). […] Samples were removed and prepared for electron microscopy as described in the Methods. All experiments were performed in triplicate and the pictures above are representative of at least 6 photographs taken at each magnification.

human amylin [2] = molecular target: T1, human amylin; assay: Radiolabelled precipitation assay of amylin fibril formation; format: biochemical; parameters: Amylin is a 37-residue; C-terminally amidated peptide having a disulfide bridge between the cysteines at residues 2 and 7; purchased Bachem Calif; (Torrance, Calif.); host or cells: chemical synthesis; details: 200 μM Congo red, 10 μM human amylin, after 5 h
Experimental: Radiolabelled Precipitation Assays. The precipitation of radiolabelled human and rat amylin fibrils was used as an independent method to monitor assembly of amylin fibrils in the presence or absence of potential inhibitors of amylin fibril formation. […] Incubation mixtures were then centrifuged at either 16,000×g or 100,000×g, for 20 min, and the amount of [^3H]-human amylin remaining in the supernatant after centrifugation was determined (Beckman LSW 3801 β-counter, USA). Results were expressed as percentages of precipitable counts per minute, relative to total radioactivity in the supernatant.
Incorporation of [^3H]-amylin into amylin fibrils was followed for 24 hours. Human amylin fibrils were precipitated by centrifugation at either 16,000×g (FIG. 7A) or at 100,000×g (FIG. 7B). Rat amylin (10 μM) in the presence of [^3H]-rat amylin was used as a non-fibril forming control (♦) (FIG. 7A). The results are shown as the percentage of precipitable radioactive amylin, relative to total radioactivity in the supernatant at each time point. Each data point represents the mean±s.e.m of three separate reactions.
The incorporation of radioactive monomeric amylin into the human amylin fibrils as they form, can be used to measure the rate at which amylin fibrils form in the presence or absence of a potential inhibitory drug. Amylin fibrils can be separated from solution by centrifugation and the amount of radioactive amylin precipitated in the amylin fibril pellet is then used as a measure of the amount of amylin fibrils present at that time.
Thioflavin-T, although not polycyclic, is widely used in fluorescent assays to measure amylin fibril formation. Incorporation of radioactivity into the pellet of an aliquot of the reaction mixture centrifuged at 16,000×g, for 20 minutes was monitored over the time periods indicated. Rat amylin (10 μM) with [^3H]-rat amylin added was used as a non fibril forming control (∘) in each experiment. The results are shown as the percentage of precipitable radioactive amyloid, relative to total radioactivity in the supernatant at each time point. Each data point represents the mean±s.e.m of three separate experiments.

human amylin [3] = molecular target: T1, human amylin; details: 10 μM thioflavin-T
Experimental: Thioflavin-T binding fluorescent assays. The effects of various polycyclic compounds on islet amyloid formation were measured by fluorescence spectroscopy, using a SpectraMAX Gemini XS Fluorescence Spectrophotometer (Molecular Devices Corporation, Sunnyvale, Calif.). Excitation and emission maxima were set to 450 nm and 510 nm respectively using a cutoff filter at 495 nm. Thioflavin-T binds to amylin fibrils, but not to monomeric amylin (Goldsbury et al., (1999), J. Mol. Biol., 285:33-39). […] The rate of amylin fibril formation was determined by following thioflavin-T fluorescence in the presence or absence of the potential inhibitory drug. […] Background fluorescence by acridine and acridine orange in the absence of amylin was subtracted from the experimental results. The control preparation contained human amylin and thioflavin-T in the absence of drug. The rate of fluorescence enhancement under these conditions was used to compare amylin fibril formation in the absence and presence of the drug. All other experimental conditions were identical.
Tri-prolyl amylin and rat amylin with thioflavin-T were also used as additional controls.
Each data point represents the mean±s.e.m of three separate reactions.
Effect of chlorpromazine on enhancement of thioflavin-Tfluorescence by human amylin (FIG. 2). Chlorpromazine (700 μM) (π) was incubated in 10 mM tris p H 7.4, with monomeric human amylin (70 μM) in the presence of thioflavin-T (10 μM). The fluorescence of the reaction was monitored over 24 hours as described in the methods. […] Each data point represents the mean±s.e.m of three separate reactions.
Effect of selected polycylic compounds on enhancement of thioflavin-Tfluorescence by human amylin (FIG. 3). Acridine, acridine orange, neutral red and methylene blue are selected examples of fused tricyclic ring compounds. […] Compound structures are shown adjacent to the appropriate graph. […] Fluorescence was monitored over 24 h as described in the Methods. A preparation containing human amylin and thioflavin-T only (▪), was included as a comparison in the absence of drug. […] Each data point represents the mean±s.e.m of three independent experiments.

RINm5F cells = assay: Cytotoxicity assay in RINm5F cells (calcein-AM / ethidium homodimer-1 staining)
Experimental: Cell Culture and Cytotoxicity Assays. RINm5F cells were cultured in RPMI 1640 medium containing 10% fetal bovine serum, 290 μg/mL L-glutamine, 100 IU/mL penicillin and 100 μg/mL streptomycin. Cells were plated at a density of 15×1 cells per well, incubated for 48 h, rinsed with PBS and placed in fresh medium containing Congo red. Freshly prepared human amylin in Milli-Q water, was preincubated with Congo red for 30 min, then added to the cell culture medium to give a final concentration of 30 μM. Cells were treated for 22 h with human amylin in the presence or absence of 100 μM Congo red. Cell viability was determined by double-staining with calcein-AM and ethidium homodimer-1. Green fluorescence of live cells and red fluorescence marking nuclei of dead cells were simultaneously visualized using a Zeiss Axiovert S100 microscope equipped with a Zeiss filter set # 09. Photographs were taken at 400× magnification using a Zeiss AxioCam digital camera.
A. Representative fluorescence micrograph of RINm5F cells treated with 30 μM human amylin for 22 h and stained with calcein-AM and ethidium homodimer-1 to show live cells (green) and dead cells (red). […] B. A representative micrograph of RINm5F cells treated with 30 μM human amylin and 100 μM Congo red stained as above. […] The percentage of live cells was determined for cells treated for 22 h with vehicle; 30 μM human amylin; 30 μM human amylin in the presence of 100 μM Congo red; or 30 μM rat amylin. Experiments were repeated independently 10 times except for human amylin plus Congo red (A+CR) which was repeated five times. Error bars represent the s.e.m of live and dead cell counts over 6-12 fields per condition.

## Congo red
Human amylin [1]
  morphology of human amylin fibrils (electron microscopy): still formed characteristic amylin fibrils
Human amylin [2]
  reduction in amyloid content: approximately 3 fold
Human amylin [3]; 700 μM compound, 70 μM human amylin, 10 mM tris pH 7.4, over 72 hours (FIG. 1)
  enhancement of thioflavin-T fluorescence by human amylin: no increase in fluorescence beyond that of the rat control preparation
Human amylin [3]; 1200 μM compound (20-fold molar excess), 60 μM human amylin, over 24 h (FIG. 3)
  enhancement of thioflavin-T fluorescence by human amylin: no increase in thioflavin-T enhanced fluorescence
RINm5F cells; 30 μM human amylin, 100 μM Congo red (3-fold molar excess), 22 h
  protection against cytotoxic effects of human amylin: inhibited the cytotoxic effects of amylin
RINm5F cells; relative molar ratios which produced suppression of amyloid aggregation (low μM)
  intrinsic cytotoxicity of compound to RINm5F β cells: nointrinsic cytotoxic effects
